Measured values from patent US9273057B2 (Bristol-Myers Squibb Company, priority 2012, dated 2016).

target: CK2A1 (CK2α/β) (Homo sapiens, UniProt P68400); assay: CK2 kinase assay, CK2A1 (CK2α/β); assay type: biochemical; conditions: Table A; read-out: CK2A1 (CK2α/β) (IC50)
Sequence (P68400 whole entry, species assumed): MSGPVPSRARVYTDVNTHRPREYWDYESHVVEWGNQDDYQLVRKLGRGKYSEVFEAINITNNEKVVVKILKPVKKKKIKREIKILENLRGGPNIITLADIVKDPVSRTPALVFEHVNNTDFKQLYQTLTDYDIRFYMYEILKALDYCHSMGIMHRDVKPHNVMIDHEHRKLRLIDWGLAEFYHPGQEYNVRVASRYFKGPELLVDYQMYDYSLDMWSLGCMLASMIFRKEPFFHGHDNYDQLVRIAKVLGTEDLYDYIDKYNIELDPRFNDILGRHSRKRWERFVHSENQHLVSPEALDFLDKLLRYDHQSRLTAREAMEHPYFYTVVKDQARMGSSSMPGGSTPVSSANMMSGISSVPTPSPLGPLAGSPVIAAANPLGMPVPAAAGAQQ
Sequence (P67870 whole entry partner, species assumed): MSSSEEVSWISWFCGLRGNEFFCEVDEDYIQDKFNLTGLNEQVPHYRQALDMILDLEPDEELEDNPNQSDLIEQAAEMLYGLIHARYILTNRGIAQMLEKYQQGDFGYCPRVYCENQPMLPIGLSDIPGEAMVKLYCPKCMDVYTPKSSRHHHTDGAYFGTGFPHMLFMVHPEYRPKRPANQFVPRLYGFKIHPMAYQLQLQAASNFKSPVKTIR

Row | IC50 | Compound
1 | 0.68 nM | N#Cc1cc(Nc2nc(NC3CC3)c3ncc(C#N)n3n2)c(Cl)cc1NC1CCNCC1 [Example 410, 2-((2-chloro-5-cyano-4-(piperidin-4-ylamino)phenyl)amino)-4-(cyclopropylamino)imidazo[2,1-f][1,2,4]triazine-7-carbonitrile]
2 | 0.76 nM | N#Cc1cc(Nc2nc(NC3CC3)c3ncc(C#N)n3n2)c(Cl)cc1NC1CCN(C2COC2)CC1 [Example 411, 2-((2-chloro-5-cyano-4-((1-(oxetan-3-yl)piperidin-4-yl)amino)phenyl)amino)-4-(cyclopropylamino)imidazo[2,1-f][1,2,4]triazine-7-carbonitrile]
3 | 0.43 nM | CN(CCN)c1cc(Cl)c(Nc2nc(NC3CC3)c3ncc(C#N)n3n2)cc1C#N [Example 412, 2-((4-((2-aminoethyl)(methyl)amino)-2-chloro-5-cyanophenyl)amino)-4-(cyclopropylamino)imidazo[2,1-f][1,2,4]triazine-7-carbonitrile]
4 | 0.39 nM | CN(CCNC1COC1)c1cc(Cl)c(Nc2nc(NC3CC3)c3ncc(C#N)n3n2)cc1C#N [Example 413, 2-((2-chloro-5-cyano-4-(methyl(2-(oxetan-3-ylamino)ethyl)amino)phenyl)amino)-4-(cyclopropylamino)imidazo[2,1-f][1,2,4]triazine-7-carbonitrile]
5 | 0.99 nM | N#Cc1cc(Nc2nc(NC3CC3)c3ncc(C#N)n3n2)c(F)cc1F [Example 414, 2-((5-cyano-2,4-difluorophenyl)amino)-4-(cyclopropylamino)imidazo[2,1-f][1,2,4]triazine-7-carbonitrile]
6 | 0.68 nM | N#Cc1cc(Nc2nc(NC3CC3)c3ncc(C#N)n3n2)c(F)cc1OCCN1CCOCC1 [Example 416, 2-((5-cyano-2-fluoro-4-(2-morpholinoethoxy)phenyl)amino)-4-(cyclopropylamino)imidazo[2,1-f][1,2,4]triazine-7-carbonitrile]
7 | 0.31 nM | N#Cc1cc(Nc2nc(NC3CC3)c3ncc(C#N)n3n2)c(F)cc1OC[C@@H]1COCCN1 [Example 417, (S)-2-((5-cyano-2-fluoro-4-(morpholin-3-ylmethoxy)phenyl)amino)-4-(cyclopropylamino)imidazo[2,1-f][1,2,4]triazine-7-carbonitrile]
8 | 0.61 nM | N#Cc1cc(Nc2nc(NC3CC3)c3ncc(C#N)n3n2)c(OCCN2CCOCC2)cc1F [Example 421, 2-((5-cyano-4-fluoro-2-(2-morpholinoethoxy)phenyl)amino)-4-(cyclopropylamino)imidazo[2,1-f][1,2,4]triazine-7-carbonitrile]
9 | 2.73 nM | N#Cc1cc(Nc2nc(NC3CC3)c3ncc(C#N)n3n2)c(OCCN2CCOCC2)cc1OCCN1CCOCC1 [Example 422, 2-((5-cyano-2,4-bis(2-morpholinoethoxy)phenyl)amino)-4-(cyclopropylamino)imidazo[2,1-f][1,2,4]triazine-7-carbonitrile]
10 | 5.12 nM | N#Cc1cc(Nc2nc(NC3CC3)c3ncc(C#N)n3n2)c(OC[C@@H]2COCCN2)cc1F [Example 424, (S)-2-((5-cyano-4-fluoro-2-(morpholin-3-ylmethoxy)phenyl)amino)-4-(cyclopropylamino)imidazo[2,1-f][1,2,4]triazine-7-carbonitrile]
11 | 0.73 nM | N#Cc1cc(Nc2nc(NC3CC3)c3ncc(C#N)n3n2)c(Cl)c(OC2CCN(C3COC3)CC2)c1 [Example 425, 2-((2-chloro-5-cyano-3-((1-(oxetan-3-yl)piperidin-4-yl)oxy)phenyl)amino)-4-(cyclopropylamino)imidazo[2,1-f][1,2,4]triazine-7-carbonitrile]
12 | 0.78 nM | CC1(N2CCC(Oc3cc(C#N)cc(Nc4nc(NC5CC5)c5ncc(C#N)n5n4)c3Cl)CC2)COC1 [Example 427, 2-((2-chloro-5-cyano-3-((1-(3-methyloxetan-3-yl)piperidin-4-yl)oxy)phenyl)amino)-4-(cyclopropylamino)imidazo[2,1-f][1,2,4]triazine-7-carbonitrile]
13 | 2.9 nM | CN1CCN(c2cc(Cl)c(Nc3nc(NC4CC4)c4ncc(C#N)n4n3)cc2C#N)CC1 [Example 432, 2-((2-chloro-5-cyano-4-(4-methyl-1-piperazinyl)phenyl)amino)-4-(cyclopropylamino)imidazo[2,1-f][1,2,4]triazine-7-carbonitrile]
14 | 0.75 nM | N#Cc1cc(Nc2nc(NC3CC3)c3ncc(C#N)n3n2)c(Cl)c(OC[C@@H]2COCCN2)c1 [Example 439, (S)-2-((2-chloro-5-cyano-3-(morpholin-3-ylmethoxy)phenyl)amino)-4-(cyclopropylamino)imidazo[2,1-f][1,2,4]triazine-7-carbonitrile]
15 | 1.17 nM | N#Cc1cc(Nc2nc(NC3CC3)c3ncc(C#N)n3n2)c(Cl)c(OCC2CNCCO2)c1 (stereo not drawn) [Example 441, 2-((2-chloro-5-cyano-3-(morpholin-2-ylmethoxy)phenyl)amino)-4-(cyclopropylamino)imidazo[2,1-f][1,2,4]triazine-7-carbonitrile]
16 | 2.93 nM | CN1CCC2CN(c3cc(C#N)cc(Nc4nc(NC5CC5)c5ncc(C#N)n5n4)c3Cl)CCC21 (stereo not drawn) [Example 443, 2-((2-chloro-5-cyano-3-(1-methylhexahydro-1H-pyrrolo[3,2-c]pyridin-5(6H)-yl)phenyl)amino)-4-(cyclopropylamino)imidazo[2,1-f][1,2,4]triazine-7-carbonitrile]
17 | 0.76 nM | N#Cc1cc(Nc2nc(NC3CC3)c3ncc(C#N)n3n2)c(Cl)c(N2CCC3C(CCN3C3COC3)C2)c1 (stereo not drawn) [Example 444, 2-((2-chloro-5-cyano-3-(1-(oxetan-3-yl)hexahydro-1H-pyrrolo[3,2-c]pyridin-5(6H)-yl)phenyl)amino)-4-(cyclopropylamino)imidazo[2,1-f][1,2,4]triazine-7-carbonitrile]
18 | 2.9 nM | COC(=O)N1CCC2CN(c3cc(C#N)cc(Nc4nc(NC5CC5)c5ncc(C#N)n5n4)c3Cl)CCC21 (stereo not drawn) [Example 445, methyl 5-(2-chloro-5-cyano-3-((7-cyano-4-(cyclopropylamino)imidazo[2,1-f][1,2,4]triazin-2-yl)amino)phenyl)octahydro-1H-pyrrolo[3,2-c]pyridine-1-carboxylate]
19 | 3.48 nM | CC(=O)N1CCC2CN(c3cc(C#N)cc(Nc4nc(NC5CC5)c5ncc(C#N)n5n4)c3Cl)CCC21 (stereo not drawn) [Example 446, 2-((3-(1-acetylhexahydro-1H-pyrrolo[3,2-c]pyridin-5(6H)-yl)-2-chloro-5-cyanophenyl)amino)-4-(cyclopropylamino)imidazo[2,1-f][1,2,4]triazine-7-carbonitrile]
20 | 0.88 nM | N#Cc1cc(Nc2nc(NC3CC3)c3ncc(C#N)n3n2)c(Cl)c(N2CCC3C(CCN3C[C@@H](O)CF)C2)c1 (stereo partly drawn) [Example 448, 2-((2-chloro-5-cyano-3-(1-((R)-3-fluoro-2-hydroxypropyl)hexahydro-1H-pyrrolo[3,2-c]pyridin-5(6H)-yl)phenyl)amino)-4-(cyclopropylamino)imidazo[2,1-f][1,2,4]triazine-7-carbonitrile]
21 | 0.91 nM | N#Cc1cc(Nc2nc(NC3CC3)c3ncc(C#N)n3n2)c(Cl)c(N2CCC3C(CCN3C[C@H](O)CF)C2)c1 (stereo partly drawn) [Example 449, 2-((2-chloro-5-cyano-3-(1-((S)-3-fluoro-2-hydroxypropyl)hexahydro-1H-pyrrolo[3,2-c]pyridin-5(6H)-yl)phenyl)amino)-4-(cyclopropylamino)imidazo[2,1-f][1,2,4]triazine-7-carbonitrile]
